Measured values as given in patent publication EP2848693A1, “Concatenation of halogenated alkenyl diphosphate derivatives” (LANXESS Deutschland GmbH, priority 2013, dated 2015).

How the values were obtained:
[1] = target: T1, Thermococcus kodakaraensis cis-Prenyltransferase (ThkCPT) (Thermococcus kodakarensis, UniProt Q5JGE1); assay: MTP phosphate detection assay (diphosphate release, BIOMOL Green), substrate kinetics; assay type: biochemical; details: elongation substrate varied, starter FPP 10 µM, room temperature
T1 construct: made in house; host or cells: E. coli
T1 sequence (Q5JGE1 1-264): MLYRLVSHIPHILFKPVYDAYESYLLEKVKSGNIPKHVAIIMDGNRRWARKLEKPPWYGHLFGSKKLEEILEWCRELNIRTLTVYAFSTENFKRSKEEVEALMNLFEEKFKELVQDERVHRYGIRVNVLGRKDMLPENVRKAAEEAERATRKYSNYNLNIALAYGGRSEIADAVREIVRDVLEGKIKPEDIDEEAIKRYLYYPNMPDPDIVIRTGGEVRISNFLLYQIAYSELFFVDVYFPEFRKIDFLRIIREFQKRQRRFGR
Description: (§1) Cis-Prenyltransferasen entlassen während der Reaktion Diphosphat nach jedem Kondensationsschritt. Dies ist der Ansatzpunkt, der gewählt wurde, um unabhängig von der Art des Produktes den Grundumsatz zu detektieren. […] Die Dreifachbestimmungen der Enzymreaktionen wurden mit 100 µL BIOMOL Green™ Detektionsreagenz gestoppt und nach weiteren 20 min in einem Mikrotiterplattenspektrophotometer bei 620 nm gemessen. Zur Kontrolle erfolgte für jede Substratkonzentration eine Messung mit denaturiertem Enzym zu den unterschiedlichen Zeitpunkten um Selbsthydrolyse der Substrate zu berücksichtigen. Zur Quantifizierung wurde eine Pi-Standardkurve in Doppelbestimmung mitgeführt. Die Verdünnung des KPi-Standards erfolgte in Assaypuffer, wurde mit 100 µL BIOMOL Green™ Detektionsreagenz nach Ablauf der Enzymreaktion in den Test-Wells detektiert und zeitgleich nach weiteren 20 min bei 620 nm gemessen. Eine lineare Beziehung zwischen A620 nm und Pi-Konzentration ermöglichte eine Quantifizierung zwischen 80 µM-0 µM Pi.
(§2) Die Bestimmung der FPP-Kinetiken der EcUPPS sowie der ThkCPT erfolgte unter analogen Bedingungen der Bestimmung von IPP. […] Die Enzymreaktion wurde nach 60 s, 120 s, 180 s, 300 s, 600 s, 900 s oder 1200 s durch Zugabe von 100 µL BIOMOL Green™ Detektionsreagenz gestoppt und wie oben beschrieben gemessen.
(§3) Die Assaybedingungen wurden wie in Beispiel 3 beschriebenen gewählt. […] Variation von 500 - 0 µM im Fall der Elongationssubstrate erfolgte konstant mit 10 µM FPP (jedes Homoallyldiphosphat möglich).
(§4) Zur Berechnung der Umsatzraten in nkat·mg^-1 wurde verwendet: ν0 = ((A620-ABlank)⋅1000)/(2⋅m⋅t⋅[E]) [formula] v0 Anfangsgeschwindigkeit der Diphosphathydrolyse (nkat·mg^-1) A620 Absorption bei 620 nm ABlank Absorption der Kontrolle bei 620 nm m Anstieg der Phosphatstandardkurve (µM^-1) t Dauer der Enzymreaktion (s) [E] Enzymkonzentration (mg·L^-1)
(§5) Die Auswertung erfolgte durch nicht-lineare Regression nach der Hill-Gleichung mit Sigma-Plot 11. […] Substratkonzentration (µM) h Hill-Koeffizient

[2] = target: T2, E. coli Undecaprenyldiphosphatsynthase (EcUPPS) (Escherichia coli, UniProt P60472); assay: as above; assay type: biochemical; details: elongation substrate varied, starter FPP 10 µM
T2 construct: made in house; host or cells: E. coli
T2 sequence (P60472 1-253): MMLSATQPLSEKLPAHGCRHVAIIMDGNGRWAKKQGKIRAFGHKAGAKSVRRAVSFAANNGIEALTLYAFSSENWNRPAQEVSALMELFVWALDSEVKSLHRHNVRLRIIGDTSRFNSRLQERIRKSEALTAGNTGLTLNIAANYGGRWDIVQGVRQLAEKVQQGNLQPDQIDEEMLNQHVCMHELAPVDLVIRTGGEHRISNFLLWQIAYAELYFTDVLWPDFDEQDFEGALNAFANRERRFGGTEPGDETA
Description: as §1, §2, §3, §4, §5

C=C(Cl)CCOP(=O)(O)OP(=O)(O)O [Cl-BPP, 3-Chlor-3-Butenyldiphosphat]
kcat [1]: 0,0005 s^-1 | kcat [2]: 0,0009 s^-1
